According to patent US5516525A, “Vitamin D derivative feed compositions and methods of use” (University of Georgia Research Foundation, Inc., priority 1994, dated 1996):
Several values for one entry are separate records, joined by “and”; a condition that tells them apart may be missing. Equal values may be shown once. Read-outs that look alike come from different tables or passages of the source.

Experiments:
[1] = tested on: conversion of 25(OH)D3 to 1,25(OH)2 D3; settings: chickens made acidotic; cited from earlier work
[2] = 16-day body weight and gain:feed (Example 2); format: in vivo, chicken (Peterson X Arbor Acre cockerels); settings: D3 […], derivatives 10 μg/kg feed
Method: The basal diet used is described above in Table 2. Disulfiram was added to the basal diet of some chickens as indicated in Table 10 at a level of 30 mg/kg of feed. […]

^47 Ca retention = assay: 47Ca absorption and retention (Example 2); format: in vivo, chicken (Peterson X Arbor Acre cockerels); design: key to ^47 Ca intercept / Ca^47 Ret.: % of administered 47Ca retained (y-intercept of retention-vs-days plot); settings: for ^47 Ca intercept / ^47 Ca slope: Study 2
Method: Absorption and retention of dietary calcium was measured by orally dosing chicks with ^47 Ca and then measuring the total body radioactive count, as described in Suso and Edwards, "A Study of Techniques for Measuring ^65 Zn Absorption and Biological Half-life in the Chicken," Poult. Sci. 47:991-999 (1968). Specifically, ten seven day old birds in one pen under the indicated dietary treatments were dosed orally with 0.5 milliliter of water solution containing 0.5 microcuries of ^47 Ca and 0.1 to 1.0 micrograms of calcium. The total body radioactive content of the individual chickens was determined immediately following dosing, and also on days 7, 9, 12 and 14 following dosing. A plot of percent administered ^47 Ca which was retained versus number of days yields a line which has a slope corresponding to the half-life of the radioactive calcium in the chicken, and a y-intercept that corresponds to the amount of calcium absorbed by the chicken. Effect of vitamin D3 derivatives on Tibial Dyschondroplasia.

[3] = 9-day body weight, feed consumption and gain:feed (Example 1); settings: in words; for nine day weight: Example 1
Method: Newly hatched Petersen X Arbor Acre cockerels obtained from a commercial hatchery were used. Animals were housed in electrically heated Petersime battery brooders with wire-mesh floors located in a room in which the temperature was maintained at 22° C., fluorescent lights were on 24 hours each day in the room and the cages, and sunlight was present during the day from large windows. No attempt was made to limit the natural production of vitamin D3. Feed and water were available to the chickens at all times.
(§3) Ten newly hatched birds were randomly placed in each section of the Petersime batteries until the birds were nine days old. The measurements described below were calculated on a pen basis; all statistical analyses were conducted on pen averages. Blood samples were taken by cardiac puncture with heparinized syringes from one randomly chosen bird from each pen on the ninth day before weighing the birds.
At nine days of age, pen body weights were obtained for all birds and their feed consumption was recorded. […] Briefly, using a three week old chicken as the reference animal, a score of zero indicates normal cartilage which is narrow with little irregularities. […] Deep irregularities are apparent. A score of three indicates a large mass of cartilage in the proximal end of the tibia. The birds were also scored for phosphorus deficient rickets at the same time they were scored for tibial dyschondroplasia. Chickens which had normal proliferating prehypertrophied zone and a lengthened metaphyseal primary spongiosa were classified as phosphorus deficient rickets. The left tibia was removed for bone ash determination on the fat-free bone.

bone ash [4] = assay: bone ash of left tibia (Example 1); settings: in words
Text: The left tibia was removed for bone ash determination on the fat-free bone.

bone ash [5] = assay: bone ash (Example 2); format: in vivo, chicken (Peterson X Arbor Acre cockerels); settings: in words
Method: (§1) The basal diet used is described above in Table 2. Disulfiram was added to the basal diet of some chickens as indicated in Table 10 at a level of 30 mg/kg of feed.
(§2) After the tibia was scored for incidence and severity of tibial dyschondroplasia, the left tibia was removed for a bone ash determination on the fat-free dried bone.

tibial dyschondroplasia [6] = format: in vivo, chicken (Peterson X Arbor Acre cockerels); settings: D3 […], derivatives 10 μg/kg feed
Method: Deep irregularities are apparent.
as §1, §2

tibial dyschondroplasia [7] = settings: cited from earlier work
phytate phosphorus = assay: phytate (IP4, IP5, IP6) in feces, ferric chloride and HPLC procedures; format: in vivo, chicken (Petersen X Arbor Acre cockerels)
[8] = blood plasma total calcium and dialyzable phosphorus; settings: in words, Exp 1
Method: as §3

[9] = tested on: phosphorus deficient rickets; assay: phosphorus deficient rickets (Example 1); settings: in words, Exp 1
Text: The birds were also scored for phosphorus deficient rickets at the same time they were scored for tibial dyschondroplasia. Chickens which had normal proliferating prehypertrophied zone and a lengthened metaphyseal primary spongiosa were classified as phosphorus deficient rickets.
Ri is an abbreviation for rickets incidence.

[10] = Study 1, with disulfiram 30 mg/kg feed
[11] = Study 2, with disulfiram 30 mg/kg feed
[12] = basal diet, D3 […], derivatives 10 μg/kg feed
[13] = with disulfiram 30 mg/kg feed, D3 […], derivatives 10 μg/kg feed
[14] = Study 3, D3 […], derivatives 10 μg/kg feed
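Wherever #3/No. is given: score 3 means a large cartilage mass in the proximal tibia.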
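Wherever #3/total is given: score 3 means a large cartilage mass in the proximal tibia.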
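Wherever % #3 is given: score 3 means a large cartilage mass in the proximal tibia.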
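Wherever % N3 is given: score 3 means a large cartilage mass in the proximal tibia.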

## Cl.N [ammonium chloride]
[1]
  conversion of 25(OH)D3 to 1,25(OH)2 D3: reduced conversion

## C=C1/C(=C\C=C2/CCC[C@]3(C)[C@@H]([C@H](C)CCCC(C)(C)O)CC[C@@H]23)C[C@@H](O)C[C@@H]1O [1,25-(OH)2 D3, 1,25-dihydroxycholecalciferol]
[2]; Study 1, basal diet
  16 Day wt.: 421
  Gain:Feed: .670
[2]; [10]
  16 Day wt.: 426
  Gain:Feed: .701
[2]; Study 2, basal diet
  16 day wt: 361
  Gain:Feed: .661
[2]; [11]
  16 day wt: 377
  Gain:Feed: .684
[2]; Study 3
  16 Day Wt.: 421
  Gain/feed: .66
[2]; Study 4
  16 Day wt.: 355
  Gain/feed: .652
^47 Ca retention; [12]
  ^47 Ca intercept: 84
  ^47 Ca slope: -2.85
^47 Ca retention; [13]
  ^47 Ca intercept: 70
  ^47 Ca slope: -2.11
^47 Ca retention; [14]
  Ca^47 Ret.: 78
  Ca^47 slope: -.72
^47 Ca retention; in words, Example 2
  dietary ^47 Ca absorbed: significantly more dietary ^47 Ca absorbed
  half-life, or retention, of the calcium: increasing the half-life
[3]
  nine day weight: increased
Bone ash [4]
  bone ash: increased
Bone ash [5]
  bone ash: increases bone ash
Tibial dyschondroplasia [6]; Study 1, basal diet
  #3/total: 1/29
Tibial dyschondroplasia [6]; [10]
  #3/total: 4/30
Tibial dyschondroplasia [6]; Study 2, basal diet
  #3/total: 2/30
Tibial dyschondroplasia [6]; [11]
  #3/total: 6/30
Tibial dyschondroplasia [6]; Study 3
  #3/No.: 5/58
  % N2 + 3: 16%
  % N3: 9%
Tibial dyschondroplasia [6]; Study 4
  #3/total: 4/52
  % #3: 8%
Tibial dyschondroplasia [7]; 20 ng/day, Edwards, J. Nutr. 114:1001 (1984)
  incidence of tibial dyschondroplasia: no effect on the incidence of tibial dyschondroplasia

## O.O=P([O-])([O-])O.[Na+].[Na+] [P, Na2 HPO4 H2 O]
Phytate phosphorus; in vivo
  Feces excreted: 451 and 602 and 606
  IP5 excretion, percent of total phytin phosphorus: 5.76% and 2.70% and 6.87%
  IP6 excretion, percent of total phytin phosphorus: 46.92% and 37.06% and 46.00%
  IP6 phytate phosphorus in feces by HPLC: 3.99 mg/g and 3.03 mg/g and 3.68 mg/g
  Phytate phosphorus retention, FeCl3: 47 and 68 and 51
  Phytate phosphorus retention, HPLC: 47 and 60 and 46
  Phytin phosphorus retained (100 - total excreted): 46.7% and 59.5% and 45.9%
  Total phytate phosphorus in feces by HPLC: 4.54 mg/g and 3.32 mg/g and 4.35 mg/g
  Total phytin phosphorus excreted: 53.4% and 40.6% and 54.4%
Phytate phosphorus; in words, Exp 1
  amount of phosphorus in the feces: approximately the same
[8]
  blood plasma phosphorus: increased
[3]
  nine day weight: increased nine day weights
[3]; Exp 1
  gain:feed ratio: increased
Bone ash [4]
  bone ash: increased
[9]
  incidence of phosphorus-deficient rickets: decreased
Tibial dyschondroplasia [7]; chickens, dietary level
  tibial dyschondroplasia (effect of dietary factor): accentuate the development of the lesions
